Measurements as given in patent US12358963B2, “Regenerative polypeptides and uses thereof” (Juvena Therapeutics, Inc., priority 2019, dated 2025).

How the values were obtained:
Type in all cases: cell-based
[1] = system: aged human myoblast cell lines; assay: Myogenic gene RNA expression in aged human myoblasts by real-time qPCR
Experimental: Myogenic gene RNA expression (fold change to FM) in response to vehicle (FM) in mouse myoblast cell lines monitored by real-time qPCR. Myoblast were cultured 48h in fusion media. Mean±SD. n=3. (Y,Z) Differential induction of myogenic gene expression by FGF17 in human myoblast myoblasts. Quantitation table of myogenic gene RNA expression (fold change to FM-fusion media (DMEM+2% horse serum)) in response to FM or rh-FGF17 in aged human myoblast cell lines by real-time qPCR. Myoblast were cultured (B) 48 hours or (C) 72 hours in FM. Mean∓SD. n=3.
RNA was isolated from each well (RNeasy Mini Kit, Qiagen) and cDNA was obtained by reverse-transcription (High Capacity Reverse Transcription Kit, Thermo Fisher Scientific). Real-time quantitative PCR was performed using QuantStudio3 (Thermo Fisher).
Aged human myoblasts were cultured in well plates. […] Cells that had been cultured with IGF2 had increases in levels of MYOG at 48 hours and levels of MYOD at 72 hours.

[2] = system: human myoblast cells; assay: Human myoblast differentiation, % area eMyHC (IGF2, sodium butyrate); conditions: 96h, vehicle 6.813
Experimental: Fresh media was added every 24 hours. […] The total area of eMyHc positive cells was analyzed, and treated cells were compared to cells treated with the vehicle alone. […] Myoblast were cultured 96h in the presence of BMP7 at indicated dose. Fresh media and BMP7 was added every 24h. Mean∓S.D. (*p<0.05 by One-Way Anova Tukey Honest Significant Difference, n=2-12) […] Fresh media was added every 24 hours. […] FIG. 3A: Bar graph of % Area eMyHC+ age human myoblast (person) in response to indicated treatment compared to Vehicle (vehicle). Myoblast were cultured 96h in the presence of factors at indicated dose. Fresh media and factors were added every 24h. Mean∓S.D. Significant p-values (Vehicle IGF2: 0.03 ug/mL: 1.42E-08, Vehicle NaBut: 1 nM IGF2: 0.03 ug/mL: 1.79E-11, Vehicle NaBut: 10 nM IGF2: 0.03 ug/mL: 1.80E-11, Vehicle NaBut: 100 nM IGF2: 0.03 ug/mL: 1.79E-11). […] Myoblast were cultured 96h in the presence of BMP7 at indicated dose. Mean±S.D. Significant p-values (IGF2 NaBut: 1 nM IGF2: 0.03 ug/mL: 1.88E-3, Vehicle NaBut: 10 nM IGF2: 0.03 ug/mL: 4.80E-3, Vehicle NaBut: 100 nM IGF2: 0.03 ug/mL: 1.87E-3) (*p<0.05 by One-Way ANOVA Tukey Honest Significant Difference, n=2-12)

[3] = system: DM1 human myoblast; assay: Gene expression fold change in DM1 human myoblast; conditions: IGF2 200 ng/mL
[4] = system: DM1 human myoblast; assay: DM1 human myoblast fusion (% eMyHC area); conditions: 96h; vehicle 0.45
Experimental: (§1) Bar graph of % EdU+ human myoblast (person) and % area MyHC in response to IGF2. Myoblast were cultured 72h for proliferation and 96h for fusion in the presence of indicated factor. Mean∓S.D. Mean∓SD. Significant p-values (EdU: Vehicle˜IGF2: 6.8E-3, % eMyHC Area: Vehicle˜IGF2: 1.9E-4) (*p<0.05 by Students Two-Tailed T-test, n=3-6).
(§2) IGF2 was tested individually for its ability to promote proliferation and/or fusion of human muscle progenitor cells from an individual with myotonic dystrophy type 1 (hMD)—a muscular dystrophy caused by mutations in the DMPK1 gene. The effect of IGF2 on myogenic activity was assayed in biological triplicate across a range of concentrations centered around expected physiological levels by adding each factor to hMD myoblasts for 72 hours with daily media changes (DMEM +2% horse serum) and a second pulse of factors at the first media change. After 72 or 96 hours, cells were pulsed for 2-5 hours with EdU (30 uM), ethanol fixed, stained with Hoescht 3342, immunostained for proliferation—as measured by the percent of cells staining positive for EdU (% EdU)—, and immunostained for differentiation—as measured by the increase in cellular area staining positive for embryonic myosin heavy chain (% eMyHC) relative to the negative controls, which received media and vehicle only. […]

[5] = system: DM1 human myoblast; assay: DM1 human myoblast proliferation (EdU); conditions: 72h; vehicle 1.0
Experimental: as §1, §2

[6] = 48h, BMP7 50 ng/mL, Butyrate 100 nM, FM 1.000

IGF2: IGF2 polypeptide, IGF1R agonist
MYOD1 RNA expression (fold change to FM) ([1]; 48 hr, FM 1.001): 0.519 | MYOG RNA expression (fold change to FM) ([1]; 48 hr, FM 1.013): 5.756 | MYF5 RNA expression (fold change to FM) ([1]; 48 hr, FM 1.04): 0.409 | MYF5 RNA expression (fold change to FM) ([1]; 72 hr, FM 1.023): 0.708 | MYOD1 RNA expression (fold change to FM) ([1]; 72 hr, FM 1.055): 5.723 | MYOG RNA expression (fold change to FM) ([1]; 72 hr, FM 1.092): 0.018 | % eMyHC ([2]; IGF2 0.015 ug/mL): 10.843% | % eMyHC ([2]; IGF2 0.03 ug/mL, aged human myoblast): 16.620% | ATP1B1 expression fold change compared to FM (vehicle) ([3]; 48h): 3.018 | MYF5 expression fold change compared to FM [3, 6]: 0.730 | MYOD1 expression fold change compared to FM [3, 6]: 1.252 | MYOG expression fold change compared to FM [3, 6]: 2.972 | CKM expression fold change compared to vehicle ([3]; 96h): 5.165 | MYH3 expression fold change compared to vehicle ([3]; 96h): 14.833 | % eMyHC are [4]: 5.49% | EdU FC [5]: 2.18
